# Reference: PMC10557102 (Pharmacology Research & Perspectives, 2023)
# Tests used:
# [1] = target: T1, CYP2A6 (Homo sapiens, UniProt P11509); test: Competitive; type: in vitro ADME
# T1 sequence (P11509 1-494): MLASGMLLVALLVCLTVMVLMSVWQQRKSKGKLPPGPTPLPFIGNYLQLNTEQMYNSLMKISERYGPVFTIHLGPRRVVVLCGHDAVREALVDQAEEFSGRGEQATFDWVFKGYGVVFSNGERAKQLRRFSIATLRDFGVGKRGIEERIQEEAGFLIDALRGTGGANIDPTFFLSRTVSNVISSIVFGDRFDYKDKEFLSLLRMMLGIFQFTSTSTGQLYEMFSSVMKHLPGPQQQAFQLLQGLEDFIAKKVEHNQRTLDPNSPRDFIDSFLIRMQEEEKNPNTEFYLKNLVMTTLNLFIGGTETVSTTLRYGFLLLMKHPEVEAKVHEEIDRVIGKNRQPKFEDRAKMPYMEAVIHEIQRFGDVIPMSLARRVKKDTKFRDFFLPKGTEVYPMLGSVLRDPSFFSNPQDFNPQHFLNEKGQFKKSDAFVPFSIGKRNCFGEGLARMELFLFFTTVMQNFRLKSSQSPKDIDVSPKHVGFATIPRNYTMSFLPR
# [2] = test system: CYP2C9
# [3] = target: CYP3A4 (Homo sapiens, UniProt P08684); test: Cocktail DDI study: PK of midazolam and 1-OH midazolam with/without nivasorexant
# Chain of CYP3A4 (P08684 whole entry): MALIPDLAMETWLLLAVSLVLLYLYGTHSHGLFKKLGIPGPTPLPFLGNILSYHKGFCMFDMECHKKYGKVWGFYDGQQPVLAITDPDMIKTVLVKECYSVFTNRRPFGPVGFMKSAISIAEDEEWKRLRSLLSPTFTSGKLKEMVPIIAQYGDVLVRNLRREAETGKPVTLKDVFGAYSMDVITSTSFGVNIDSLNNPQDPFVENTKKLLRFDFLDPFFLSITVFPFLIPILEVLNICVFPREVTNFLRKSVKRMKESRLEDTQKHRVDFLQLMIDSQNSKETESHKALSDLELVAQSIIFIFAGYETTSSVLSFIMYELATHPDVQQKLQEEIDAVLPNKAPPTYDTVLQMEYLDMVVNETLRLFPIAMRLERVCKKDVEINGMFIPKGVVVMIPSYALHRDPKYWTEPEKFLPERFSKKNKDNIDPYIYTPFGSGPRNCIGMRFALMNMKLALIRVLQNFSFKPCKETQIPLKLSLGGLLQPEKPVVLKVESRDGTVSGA
# [4] = test system: CYP2C9; test: Time-dependent; type: in vitro ADME, human; conditions: 30 min pre‐incubation with/without NADPH; diclofenac 4′‐hydroxylation
# [5] = target: CYP2C9 (Homo sapiens, UniProt P11712); test: Covalent binding; type: in vitro ADME
# Chain of CYP2C9 (Homo sapiens, UniProt P11712) (P11712 whole entry): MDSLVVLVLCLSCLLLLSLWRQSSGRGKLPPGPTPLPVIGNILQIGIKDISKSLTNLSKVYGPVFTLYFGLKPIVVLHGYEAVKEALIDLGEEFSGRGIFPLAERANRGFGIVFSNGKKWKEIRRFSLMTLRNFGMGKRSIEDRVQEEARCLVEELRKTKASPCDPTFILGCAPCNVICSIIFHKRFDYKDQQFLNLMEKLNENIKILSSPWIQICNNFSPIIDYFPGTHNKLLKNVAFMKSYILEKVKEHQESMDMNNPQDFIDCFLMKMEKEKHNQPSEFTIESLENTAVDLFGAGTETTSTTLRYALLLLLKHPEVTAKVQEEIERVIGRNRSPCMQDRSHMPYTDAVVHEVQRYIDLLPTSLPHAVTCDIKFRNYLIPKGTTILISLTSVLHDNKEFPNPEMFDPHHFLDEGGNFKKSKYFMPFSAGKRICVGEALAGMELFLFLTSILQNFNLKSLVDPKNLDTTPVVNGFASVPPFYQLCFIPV
# [6] = cited from earlier work
# [7] = target: T2, CYP2C8 (Homo sapiens, UniProt P10632); test: Competitive; type: in vitro ADME
# T2 sequence (P10632 1-490): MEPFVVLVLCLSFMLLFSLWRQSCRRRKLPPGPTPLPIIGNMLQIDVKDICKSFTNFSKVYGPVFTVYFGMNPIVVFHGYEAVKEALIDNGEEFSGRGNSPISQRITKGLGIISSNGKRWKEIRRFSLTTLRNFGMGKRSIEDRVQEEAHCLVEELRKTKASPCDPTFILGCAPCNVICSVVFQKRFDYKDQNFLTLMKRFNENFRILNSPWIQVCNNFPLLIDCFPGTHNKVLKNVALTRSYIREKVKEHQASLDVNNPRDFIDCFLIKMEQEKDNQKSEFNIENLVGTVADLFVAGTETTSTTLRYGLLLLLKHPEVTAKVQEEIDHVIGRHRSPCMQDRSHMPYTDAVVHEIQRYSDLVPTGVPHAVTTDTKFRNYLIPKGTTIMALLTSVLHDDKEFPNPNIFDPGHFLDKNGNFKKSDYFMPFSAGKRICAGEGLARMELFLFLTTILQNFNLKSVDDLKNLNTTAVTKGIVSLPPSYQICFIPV
# [8] = target: T1, CYP2A6; test: Time-dependent; type: in vitro ADME; conditions: 30 min pre‐incubation with/without NADPH; coumarin 7‐hydroxylation
# [9] = target: CYP2C19 (Homo sapiens, UniProt P33261); test: in vitro; type: in vitro ADME
# Chain of CYP2C19 (P33261 whole entry): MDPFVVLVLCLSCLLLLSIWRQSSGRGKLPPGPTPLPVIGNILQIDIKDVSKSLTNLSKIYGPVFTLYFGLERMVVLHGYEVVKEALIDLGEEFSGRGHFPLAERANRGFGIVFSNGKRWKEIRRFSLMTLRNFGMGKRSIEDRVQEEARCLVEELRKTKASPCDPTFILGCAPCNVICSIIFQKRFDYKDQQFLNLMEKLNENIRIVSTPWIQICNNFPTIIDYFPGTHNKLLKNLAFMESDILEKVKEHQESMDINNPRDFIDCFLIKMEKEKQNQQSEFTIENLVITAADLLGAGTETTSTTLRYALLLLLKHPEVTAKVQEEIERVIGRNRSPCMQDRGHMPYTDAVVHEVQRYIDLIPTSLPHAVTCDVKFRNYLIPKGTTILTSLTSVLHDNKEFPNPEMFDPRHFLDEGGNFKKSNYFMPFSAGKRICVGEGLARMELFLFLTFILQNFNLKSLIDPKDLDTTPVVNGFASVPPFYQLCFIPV
# [10] = target: CYP2D6 (Homo sapiens, UniProt P10635); test: Competitive; type: in vitro ADME
# Chain of CYP2D6 (P10635 whole entry): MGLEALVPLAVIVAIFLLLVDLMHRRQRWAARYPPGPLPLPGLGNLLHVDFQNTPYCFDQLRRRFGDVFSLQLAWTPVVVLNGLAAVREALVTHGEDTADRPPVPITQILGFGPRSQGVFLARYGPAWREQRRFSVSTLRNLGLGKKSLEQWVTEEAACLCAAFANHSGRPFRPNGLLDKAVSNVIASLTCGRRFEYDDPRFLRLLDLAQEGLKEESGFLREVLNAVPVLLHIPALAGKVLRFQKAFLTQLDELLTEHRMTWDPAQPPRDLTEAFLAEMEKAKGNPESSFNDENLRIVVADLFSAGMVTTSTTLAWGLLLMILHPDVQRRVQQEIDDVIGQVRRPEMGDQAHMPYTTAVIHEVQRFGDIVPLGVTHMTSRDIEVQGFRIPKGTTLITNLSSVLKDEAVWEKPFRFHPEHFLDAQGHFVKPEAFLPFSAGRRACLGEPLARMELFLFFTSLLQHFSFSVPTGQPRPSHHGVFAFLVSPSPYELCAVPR
# [11] = target: T3, CYP2B6 (Homo sapiens, UniProt P20813); test: Time-dependent; type: in vitro ADME; conditions: 30 min pre‐incubation with/without NADPH; bupropion hydroxylation
# T3 sequence (P20813 1-491): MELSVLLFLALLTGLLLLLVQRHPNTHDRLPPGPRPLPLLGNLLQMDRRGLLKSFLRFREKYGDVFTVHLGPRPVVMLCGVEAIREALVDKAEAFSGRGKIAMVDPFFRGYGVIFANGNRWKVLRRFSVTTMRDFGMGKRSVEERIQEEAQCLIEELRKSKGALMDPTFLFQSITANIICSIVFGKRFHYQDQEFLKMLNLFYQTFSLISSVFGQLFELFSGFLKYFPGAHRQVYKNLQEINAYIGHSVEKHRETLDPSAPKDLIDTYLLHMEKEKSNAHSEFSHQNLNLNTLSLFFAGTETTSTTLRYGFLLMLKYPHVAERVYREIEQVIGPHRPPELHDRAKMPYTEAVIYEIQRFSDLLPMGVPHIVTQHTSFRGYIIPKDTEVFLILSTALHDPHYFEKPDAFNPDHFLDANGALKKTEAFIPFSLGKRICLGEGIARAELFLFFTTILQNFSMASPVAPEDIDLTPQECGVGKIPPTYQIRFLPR
# [12] = after 8 days / repeated 100 mg b.i.d., steady state
smiles,measurement,setting,value
Cc1ccc(C(=O)N2CCOC[C@H]2Cc2cccc(-n3nccn3)c2)c(-n2nccn2)c1 [nivasorexant],IC50,[1],> 100 µM
same,CYP2C9 inhibitor classification according to regulatory guidance,[2]; [12],weak (≥1.25‐ to <2‐fold)
same,perpetrator DDI potential with respect to CYP2C9 (in words),"[2]; initial administration on Day 8, 90% CIs of GMR within 0.8–1.25",lack of perpetrator DDI potential
same,CYP3A4 inhibitor classification according to regulatory guidance,[3]; after 1 day of 100 mg b.i.d.,weak (≥1.25‐ to <2‐fold)
same,CYP3A4 inhibitor classification according to regulatory guidance,[3]; [12],moderate (≥ 2‐ to <5‐fold)
same,IC50 shift,[4],no effect and no pre‐incubation effect and none
same,covalent binding (in words),[5],covalent binding
same,apparent mean terminal half‐life (t ½),"[6]; across dose levels, healthy subjects",3.3 to 6.5 h
same,dose proportionality of AUCτ,[6]; multiple oral administration,dose proportional
same,dose proportionality of C max,[6]; multiple oral administration,less than dose proportional
same,IC50,[7],25 µM
same,IC50 shift,[8],none
same,IC50 shift at 30 min,"[9]; human, recombinant enzyme",67
same,K I (inhibition constant of the CYP enzyme inactivation),[9]; recombinant CYP2C19,4.2 µM
same,k inact (rate of enzyme inactivation),[9]; recombinant CYP2C19,0.079 min⁻¹
same,IC50,[10],> 100 µM
same,IC50 shift,[11],none
